From paper PMC9563075, “Identification and Structure–Activity Relationship of Recovered Phenolics with Antioxidant and Antihyperglycemic Potential from Sugarcane Molasses Vinasse” (Foods, 2022)
“And” between values parts separate entries of the source, which are not always exact repeats. Identical values can stand only once.

Assays:
[1] = target: α-glucosidase (EC3.2.1.20); assay: α-Glucosidase inhibition assay; format: biochemical; conditions: mean ± SD; samples in 30% (v/v) ethanol-PBS
Method: The inhibition assay with the α-glucosidase was carried out as a previously described protocol. […] The incubated system contained 50 μL of samples and 100 μL of the α-glucosidase solution was added to a 96-well plate at 37 °C for 10 min. Then, 50 μL of the substrate pNP-α-G was added to start the reaction at 37 °C. After 10 min, 100 μL of 1 M Na2CO3 solution was added to inactivate α-glucosidase and halt the generation of substrates, and the absorbance was read at 405 nm with the micro-plate reader (SpectraMax 190, Molecular Devices Co., Sunnyvale, CA, USA). The percentage of inhibition and the values of IC50 of samples were calculated by the same equation as α-amylase inhibition assay.

α-amylase (EC3.2.1.1) = assay: α-Amylase inhibition assay; format: biochemical; conditions: for IC50: mean ± SD, samples in 30% (v/v) ethanol-PBS
Method: The inhibition assay with the α-amylase was performed as a previously reported protocol with a slight modification. […] Then, 1 U mL^−1 α-amylase (EC3.2.1.1), soluble starch solution (1%, w/v) and 3,5-dinitrosalicylic acid (DNS) were all dissolved in PBS (50 mM, pH 6.9). The mixed system contained a 500 μL sample or blank solution and 500 μL α-amylase incubated at 37 °C for 10 min, followed by the addition of 500 μL of preheated starch solution into the mixed incubated system to initiate the enzymatic hydrolysis reaction (37 °C, 10 min). Finally, 1 mL of DNS was added to halt the reaction, and the mixture was then allowed to sit in boiling water for 5 min. The absorbance was measured at 540 nm using a microplate reader (SpectraMax 190, Molecular Devices Co., Sunnyvale, CA, USA) at room temperature. The inhibition rate of the samples was calculated using the following equation: Inhibition rate (%)=[1−(Asample−Asample blank)/(Acontrol−Acontrol blank)]×100 where Asample, Asample blank, Acontrol, Acontrol blank represent the absorbance of the presence and absence of enzymes in sample solutions, and the absorbance of the presence and absence of enzymes in buffer solutions. The half-maximal inhibitory concentration (IC50) of each compound was obtained by regression analysis.

[2] = Oxygen radical scavenging capacity (ORAC) assay; conditions: for ORAC value: Trolox equivalents per 1 g of compound, mean ± SD, n = 3; for decrease of ORAC antioxidant activity relative to 4-hydroxybenzoic acid: additional methoxy group(s) in ortho-positions of the p-OH
Method: The antioxidant activity of compounds was measured using the ORAC assay according to a previous method. Briefly, 150 μL 8.16 × 10^−5 mM fluorescein working solution was added to the inner wells of a 96-well microplate. Then the plate was incubated at 37 °C for 10 min, after which another 25 μL diluted antioxidants were added using Trolox as standard and 75 mM buffer solution as blank. The plate was shaken every 3 min during the incubation. […] All samples were analyzed in triplicate at three different dilutions. ORAC values were expressed as mean micromoles of Trolox equivalents (TE) per 1 g of the compound.

[3] = Dissolution in 30% (v/v) ethanol-water solvent system; format: physicochemical; conditions: high-concentration
HepG2 cells = assay: Cellular antioxidant activity (CAA) assay; format: cell-based; conditions: for EC50: Homo sapiens, HepG2, HepG2 cells; for CAA value: converted from EC50, quercetin equivalents
Method: HepG2 cells (ATCC Co., Manassas, VA, USA) were incubated in DMEM with 1% penicillin-streptomycin and 10% FBS and maintained at 37 °C with 5% CO2. The modified methylene blue assay was used to determine cytotoxicity.
The CAA assay was performed, according to Wolfe et al., with slight modification. In brief, 6 × 10^4 HepG2 cells were placed in each well of a black-walled 96-microwell plate. 200 μL of PBS was added to the edge of the plate to prevent the edge effect. After adherence, cells were treated with a range of concentrations of benzoic acid derivatives and a standard (quercetin) containing 50 μM DCFH-DA for 1 h under the same culture condition. After removing the supernatant medium, the cells were washed with or without PBS. Then promptly added 600 μM ABAP into each well except blank groups before reading at 485 nm excitation and 538 nm emission using a multifunctional microplate detector (Molecular Devices, Sunnyvale, CA, USA). The fluorescence values were recorded every 5 min for 1 h. The CAA values were obtained by converting the EC50 values and presented as μmol quercetin equivalents (QE)/100 μmol.

Compound | IC50 [1] [mM] | IC50 (α-amylase (EC3.2.1.1)) [mM] | ORAC value [2] [μmol TE/g] | further results
COc1cc(C(=O)O)cc(OC)c1O [Compound 13, syringic acid] | 20.3 ± 0.39 | > 100 | 1879.9 ± 44.7 | decrease of ORAC antioxidant activity relative to 4-hydroxybenzoic acid [2]: 7.91 folds
O=C(O)c1cc(O)ccc1O [Compound 4, gentisic acid] | 30.5 ± 1.02 | 36 ± 2.23 | 23113.1 ± 1057.9 | 
COc1ccc(OC2OC(CO)C(O)C(O)C2O)cc1OC [Compound 11, 3,4-dimethoxyphenyl-O-β-D-glucopyranoside] |  |  | 56.5 ± 2.8 | 
COc1ccc(O)c(C(=O)O)c1 [Compound 2, 2-hydroxy-5-methoxybenzoic acid] | 26.1 ± 0.67 | 40.5 ± 0.44 | 32648.1 ± 2181.8 | 
COc1ccc(C(=O)O)cc1O [Compound 5, 3-hydroxy-4-methoxybenzoic acid] |  |  | 20705.9 ± 835.9 | solubility in 30% (v/v) ethanol-water system [3]: cannot be dissolved
O=c1c(O)c(-c2ccc(O)c(O)c2)oc2cc(O)cc(O)c12 [Quercetin, quercetin, reference compound] |  |  |  | EC50 (HepG2 cells; PBS wash protocol): 0.013 mM; EC50 (HepG2 cells; no PBS wash protocol): 0.00509 mM
COc1cc(OC)c(OC2OC(CO)C(O)C(O)C2O)c(OC)c1 [Compound 12, 2,4,6-trimethoxyphenyl-1-O-β-D-glucopyranoside] |  |  | 80.2 ± 2.3 | 
COc1ccc(OC)cc1 [Compound 14, 1,4-dimethoxybenzene] |  |  | 2154.2 ± 183.1 | 
COc1cc(C(=O)Cl)c(O)c(O)c1O [Compound 1, 2,3,4-trihydroxy-5-methoxy benzoyl chloride] |  |  | 4094.6 ± 32.1 | 
O=C(O)c1ccc(O)cc1 [Compound 7, 4-hydroxybenzoic acid] | 34.1 ± 1.51 | > 100 | 14874.9 ± 599.2 | α-amylase inhibition (in words) (α-amylase (EC3.2.1.1)): did not show any inhibition effect
COc1cc(C(=O)O)ccc1O [Compound 8, vanillic acid] | 29.7 ± 0.33 | > 100 | 12945.8 ± 1419.3 | cellular uptake rate (CAA value of the PBS wash/no PBS wash × 100%) (HepG2 cells; HepG2 cells): 71.53%; CAA value (HepG2 cells; HepG2 cells, PBS wash protocol): 6.18 μmol QE/100 μmol and 6.18 ± 0.09 μmol QE/100 μmol; CAA value (HepG2 cells; HepG2 cells, no PBS wash protocol): 8.64 μmol QE/100 μmol and 8.64 ± 0.53 μmol QE/100 μmol; EC50 (HepG2 cells; PBS wash protocol): 0.21 ± 0.00322 mM; EC50 (HepG2 cells; no PBS wash protocol): 0.0591 ± 0.00374 mM; decrease of ORAC antioxidant activity relative to 4-hydroxybenzoic acid [2]: 1.15 folds
COc1cc(OC2OC(CO)C(O)C(O)C2O)cc(O)c1OC [Compound 10, 3-hydroxy-4,5-dimethoxyphenyl-β-D-glucopyranoside] |  |  | 4177.5 ± 324.2 | 
Cc1cncc(CC(O)C(O)CO)n1 (stereo not shown) [Compound 9, 2-methyl-6-(2′,3′,4′-trihydroxybutyl)-pyrazine] |  |  | 78.0 ± 2.9 | 
CC(=O)SC(C)=O [Compound 3, acetyl sulfide] |  |  | 1.3 ± 0.2 | 
